What is called IC50 is the midpoint of a concentration-inhibition curve.

Starred links: 1 amine or outer side, 2 acyl side, 3 side chain; linkers in the order of their positions; H or OH if unused. Positions of bridges follow the written chain, without caps; N, C: chain ends. Non-standard residues stand in square brackets, D forms with d. Residues, ends and D or L forms follow the SMILES beside them. *: point of attachment. Bip(4'-NHCO-C6H4-3-CH2COOH) = N[C@@H](Cc1ccc(-c2ccc(NC(=O)c3cccc(CC(=O)O)c3)cc2)cc1)C(=O)O; Bip(4'-NHCO-C6H4-4-CH2COOH) = N[C@@H](Cc1ccc(-c2ccc(NC(=O)c3ccc(CC(=O)O)cc3)cc2)cc1)C(=O)O; Bip(4'-NHBz) = N[C@@H](Cc1ccc(-c2ccc(NC(=O)c3ccccc3)cc2)cc1)C(=O)O; Bip(4'-NH) = O=C([C@H](Cc1ccc(-c2ccc(N[*:3])cc2)cc1)N[*:1])[*:2]; dArg(ω-Bn(3-CH2OH)) = N=C(NCCC[C@@H](N)C(=O)O)NCc1cccc(CO)c1; Bip(4'-COOH) = N[C@@H](Cc1ccc(-c2ccc(C(=O)O)cc2)cc1)C(=O)O; X7 = N=C(NCCC[C@@H](N[*:1])C(=O)[*:2])NCc1ccc2occc2c1; Ala(morpholin-4-yl) = N[C@@H](CN1CCOCC1)C(=O)O; Benzoyl(3-OCH2COOH) = O=C(O)COc1cccc(C(=O)*)c1; Benzoyl(4-OCH2COOH) = O=C(O)COc1ccc(C(=O)*)cc1; Bip = N[C@@H](Cc1ccc(-c2ccccc2)cc1)C(=O)O; 2Pal = N[C@@H](Cc1ccccn1)C(=O)O; Cha = N[C@@H](CC1CCCCC1)C(=O)O; Chg = N[C@H](C(=O)O)C1CCCCC1; Tle = CC(C)(C)[C@H](N)C(=O)O; Sar = CNCC(=O)O

In the first experiment the target is TNFα (Homo sapiens, UniProt P01375). Briefly: TNF-Induced HEK-Blue Assay.
Chain of TNFα (P01375 77-233 limits assumed): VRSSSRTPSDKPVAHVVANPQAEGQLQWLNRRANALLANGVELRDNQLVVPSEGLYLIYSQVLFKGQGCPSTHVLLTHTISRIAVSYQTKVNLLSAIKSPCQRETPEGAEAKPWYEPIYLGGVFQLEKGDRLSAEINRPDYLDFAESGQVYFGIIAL
Conditions: not given
It is filed as cell-based.
`CC[C@H](C)[C@@H]1NC(=O)[C@@H](CCCNC(=N)N)NC(=O)[C@H](CC(=O)O)NC(=O)[C@H](Cc2cnc[nH]2)NC(=O)CN(C)C(=O)[C@H](Cc2ccc(-c3ccc(NC(=O)c4ccccc4)cc3)cc2)NC(=O)[C@H](Cc2ccc(-c3ccccc3)cc2)NC(=O)[C@H](CC2CCCCC2)NC(=O)CSC[C@@H](C(=O)NCC(N)=O)NC(=O)[C@H](CC(C)C)NC(=O)[C@H](Cc2cnc[nH]2)NC(=O)[C@H](C2CCCCC2)NC(=O)[C@@H]2CCCN2C1=O` [Example 490] ({CH2CO}-[Cha][Bip][Bip(4'-NHBz)][Sar]HD[dR]IP[Chg]HLCG-NH2; thioether N-13) returned a half-inhibitory concentration (IC50) of 50 to 200 nM.
With `CC(C)C[C@@H]1NC(=O)[C@H](Cc2cnc[nH]2)NC(=O)[C@H](C(C)C)NC(=O)[C@@H]2CCCN2C(=O)[C@H](C(C)C)NC(=O)[C@@H](CCCNC(=N)N)NC(=O)[C@H](CC(=O)O)NC(=O)[C@H](Cc2ccccc2)NC(=O)CN(C)C(=O)[C@H](Cc2ccc(-c3ccc(NC(=O)c4ccccc4)cc3)cc2)NC(=O)[C@H](Cc2ccc(-c3ccccc3)cc2)NC(=O)[C@H](CN2CCOCC2)NC(=O)CSC[C@@H](C(=O)NCC(N)=O)NC1=O` [Example 491] ({CH2CO}-[Ala(morpholin-4-yl)][Bip][Bip(4'-NHBz)][Sar]FD[dR]VPVHLCG-NH2; thioether N-13), the concentration for half-maximal inhibition (IC50) was 50 to 200 nM.

The experiment is the same for the next values; noted with them: HEK-Blue-CD40L cells, NF-kB-driven secreted alkaline phosphatase reporter; TNFα 0.5 ng/ml; 18 h; read-out: TNF induced HEK-Blue assay IC50 value.
Regarding `CC[C@H](C)[C@@H]1NC(=O)[C@@H](CCCNC(=N)N)NC(=O)[C@H](CC(=O)O)NC(=O)[C@H](Cc2cnc[nH]2)NC(=O)CN(C)C(=O)[C@H](Cc2ccc(-c3ccc(NC(=O)c4ccc(CC(=O)O)cc4)cc3)cc2)NC(=O)[C@H](Cc2ccc(-c3ccccc3)cc2)NC(=O)[C@H](C(C)(C)C)NC(=O)CSC[C@@H](C(=O)NCC(N)=O)NC(=O)[C@H](CC(C)C)NC(=O)[C@H](Cc2cnc[nH]2)NC(=O)[C@H](C(C)C)NC(=O)[C@@H]2CCCN2C1=O` [Example 485] ({CH2CO}-[Tle][Bip][Bip(4'-NHCO-C6H4-4-CH2COOH)][Sar]HD[dR]IPVHLCG-NH2; thioether N-13), the 50% inhibitory concentration (IC50) was under 50 nM.
`CC[C@H](C)[C@@H]1NC(=O)[C@@H](CCCNC(=N)N)NC(=O)[C@H](CC(=O)O)NC(=O)[C@H](Cc2cnc[nH]2)NC(=O)CN(C)C(=O)[C@H](Cc2ccc(-c3ccc(NC(=O)c4ccc(CC(=O)O)cc4)cc3)cc2)NC(=O)[C@H](Cc2ccc(-c3ccc(C(=O)O)cc3)cc2)NC(=O)[C@H](C(C)(C)C)NC(=O)CSC[C@@H](C(=O)NCC(N)=O)NC(=O)[C@H](CC(C)C)NC(=O)[C@H](Cc2cnc[nH]2)NC(=O)[C@H](C(C)C)NC(=O)[C@@H]2CCCN2C1=O` [Example 486] ({CH2CO}-[Tle][Bip(4'-COOH)][Bip(4'-NHCO-C6H4-4-CH2COOH)][Sar]HD[dR]IPVHLCG-NH2; thioether N-13): the IC50 is under 50 nM.
In the case of `CC[C@H](C)[C@@H]1NC(=O)[C@@H](CCCNC(=N)N)NC(=O)[C@H](CC(=O)O)NC(=O)[C@H](Cc2cnc[nH]2)NC(=O)CN(C)C(=O)[C@H](Cc2ccc(-c3ccc(NC(=O)c4ccc(CC(=O)O)cc4)cc3)cc2)NC(=O)[C@H](Cc2ccc(-c3ccc(C(=O)O)cc3)cc2)NC(=O)[C@H](CN2CCOCC2)NC(=O)CSC[C@@H](C(=O)NCC(N)=O)NC(=O)[C@H](CC(C)C)NC(=O)[C@H](Cc2cnc[nH]2)NC(=O)[C@H](C(C)C)NC(=O)[C@@H]2CCCN2C1=O` [Example 487] ({CH2CO}-[Ala(morpholin-4-yl)][Bip(4'-COOH)][Bip(4'-NHCO-C6H4-4-CH2COOH)][Sar]HD[dR]IPVHLCG-NH2; thioether N-13), the IC50 was under 50 nM.
For `CC[C@H](C)[C@@H]1NC(=O)[C@@H](CCCNC(=N)N)NC(=O)[C@H](CC(=O)O)NC(=O)[C@H](Cc2cnc[nH]2)NC(=O)CN(C)C(=O)[C@H](Cc2ccc(-c3ccc(NC(=O)c4ccc(CC(=O)O)cc4)cc3)cc2)NC(=O)[C@H](Cc2ccc(-c3ccc(C(=O)O)cc3)cc2)NC(=O)[C@H](CC2CCCCC2)NC(=O)CSC[C@@H](C(=O)NCC(N)=O)NC(=O)[C@H](CC(C)C)NC(=O)[C@H](Cc2cnc[nH]2)NC(=O)[C@H](C(C)C)NC(=O)[C@@H]2CCCN2C1=O` [Example 488] ({CH2CO}-[Cha][Bip(4'-COOH)][Bip(4'-NHCO-C6H4-4-CH2COOH)][Sar]HD[dR]IPVHLCG-NH2; thioether N-13), the IC50 is under 50 nM.
Still for that read-out and setting: as for `CC(C)C[C@@H]1NC(=O)[C@H](Cc2cnc[nH]2)NC(=O)[C@H](C(C)C)NC(=O)[C@@H]2CCCN2C(=O)[C@H](C(C)C)NC(=O)[C@@H](CCCNC(=N)N)NC(=O)[C@H](CC(=O)O)NC(=O)[C@H](Cc2cnc[nH]2)NC(=O)CN(C)C(=O)[C@H](Cc2ccc(-c3ccc(NC(=O)c4ccc(OCC(=O)O)cc4)cc3)cc2)NC(=O)[C@H](Cc2ccc(-c3ccccc3)cc2)NC(=O)[C@H](CC2CCCCC2)NC(=O)CSC[C@@H](C(=O)NCC(N)=O)NC1=O` [Example 489] ({CH2CO}-[Cha][Bip][Bip(4'-NH)](Benzoyl(4-OCH2COOH))[Sar]HD[dR]VPVHLCG-NH2; thioether N-13), the figure is under 50 nM; as for `CC(C)C[C@@H]1NC(=O)[C@H](Cc2cnc[nH]2)NC(=O)[C@H](C(C)C)NC(=O)[C@@H]2CCCN2C(=O)[C@H](C(C)C)NC(=O)[C@@H](CCCNC(=N)N)NC(=O)[C@H](CC(=O)O)NC(=O)[C@H](Cc2ccccc2)NC(=O)CN(C)C(=O)[C@H](Cc2ccc(-c3ccc(NC(=O)c4ccc(OCC(=O)O)cc4)cc3)cc2)NC(=O)[C@H](Cc2ccc(-c3ccccc3)cc2)NC(=O)[C@H](CN2CCOCC2)NC(=O)CSC[C@@H](C(=O)NCC(N)=O)NC1=O` [Example 492] ({CH2CO}-[Ala(morpholin-4-yl)][Bip][Bip(4'-NH)](Benzoyl(4-OCH2COOH))[Sar]FD[dR]VPVHLCG-NH2; thioether N-13), under 50 nM.
With `CC(C)C[C@@H]1NC(=O)[C@H](Cc2cnc[nH]2)NC(=O)[C@H](C(C)C)NC(=O)[C@@H]2CCCN2C(=O)[C@H](C(C)C)NC(=O)[C@@H](CCCNC(=N)N)NC(=O)[C@H](CC(=O)O)NC(=O)[C@@H]2CCCN2C(=O)CN(C)C(=O)[C@H](Cc2ccc(-c3ccc(NC(=O)c4ccc(OCC(=O)O)cc4)cc3)cc2)NC(=O)[C@H](Cc2ccc(-c3ccccc3)cc2)NC(=O)[C@H](CC2CCCCC2)NC(=O)CSC[C@@H](C(=O)NCC(N)=O)NC1=O` [Example 493] ({CH2CO}-[Cha][Bip][Bip(4'-NH)](Benzoyl(4-OCH2COOH))[Sar]PD[dR]VPVHLCG-NH2; thioether N-13), the IC50 was in the range of 50 to 200 nM.
`CC(C)C[C@@H]1NC(=O)[C@H](Cc2cnc[nH]2)NC(=O)[C@H](C(C)C)NC(=O)[C@@H]2CCCN2C(=O)[C@H](C(C)C)NC(=O)[C@@H](CCCNC(=N)N)NC(=O)[C@H](CC(=O)O)NC(=O)[C@H](Cc2ccccn2)NC(=O)CN(C)C(=O)[C@H](Cc2ccc(-c3ccc(NC(=O)c4ccc(OCC(=O)O)cc4)cc3)cc2)NC(=O)[C@H](Cc2ccc(-c3ccccc3)cc2)NC(=O)[C@H](CN2CCOCC2)NC(=O)CSC[C@@H](C(=O)NCC(N)=O)NC1=O` [Example 494] ({CH2CO}-[Ala(morpholin-4-yl)][Bip][Bip(4'-NH)](Benzoyl(4-OCH2COOH))[Sar][2Pal]D[dR]VPVHLCG-NH2; thioether N-13): the IC50 is under 50 nM.
For the compound `CC(C)C[C@@H]1NC(=O)[C@H](Cc2cnc[nH]2)NC(=O)[C@H](C(C)C)NC(=O)[C@@H]2CCCN2C(=O)[C@H](C(C)C)NC(=O)[C@@H](CCCNC(=N)N)NC(=O)[C@H](CC(=O)O)NC(=O)[C@H](Cc2cnc[nH]2)NC(=O)CN(C)C(=O)[C@H](Cc2ccc(-c3ccc(NC(=O)c4ccc(OCC(=O)O)cc4)cc3)cc2)NC(=O)[C@H](Cc2ccc(-c3ccccc3)cc2)NC(=O)[C@H](CN2CCOCC2)NC(=O)CSC[C@@H](C(=O)NCC(N)=O)NC1=O` [Example 495] ({CH2CO}-[Ala(morpholin-4-yl)][Bip][Bip(4'-NH)](Benzoyl(4-OCH2COOH))[Sar]HD[dR]VPVHLCG-NH2; thioether N-13), the IC50 was under 50 nM.
Consider `CC[C@H](C)[C@@H]1NC(=O)[C@@H](CCCNC(=N)N)NC(=O)[C@H](CC(=O)O)NC(=O)[C@H](Cc2cnc[nH]2)NC(=O)CN(C)C(=O)[C@H](Cc2ccc(-c3ccc(NC(=O)c4cccc(CC(=O)O)c4)cc3)cc2)NC(=O)[C@H](Cc2ccc(-c3ccccc3)cc2)NC(=O)[C@H](C(C)(C)C)NC(=O)CSC[C@@H](C(=O)NCC(N)=O)NC(=O)[C@H](CC(C)C)NC(=O)[C@H](Cc2cnc[nH]2)NC(=O)[C@H](C(C)C)NC(=O)[C@@H]2CCCN2C1=O` [Example 496] ({CH2CO}-[Tle][Bip][Bip(4'-NHCO-C6H4-3-CH2COOH)][Sar]HD[dR]IPVHLCG-NH2; thioether N-13), for which the IC50 was under 50 nM.
With `CC[C@H](C)[C@@H]1NC(=O)[C@@H](CCCNC(=N)NCc2cccc(CO)c2)NC(=O)[C@H](CC(=O)O)NC(=O)[C@H](Cc2cnc[nH]2)NC(=O)CN(C)C(=O)[C@H](Cc2ccc(-c3ccc(NC(=O)c4cccc(OCC(=O)O)c4)cc3)cc2)NC(=O)[C@H](Cc2ccc(-c3ccccc3)cc2)NC(=O)[C@H](CC2CCCCC2)NC(=O)CSC[C@@H](C(=O)NCC(N)=O)NC(=O)[C@H](CC(C)C)NC(=O)[C@H](Cc2cnc[nH]2)NC(=O)[C@H](C(C)C)NC(=O)[C@@H]2CCCN2C1=O` [Example 498] ({CH2CO}-[Cha][Bip][Bip(4'-NH)](Benzoyl(3-OCH2COOH))[Sar]HD[dArg(ω-Bn(3-CH2OH))]IPVHLCG-NH2; thioether N-13), the half-maximal inhibitory concentration (IC50) lay within 50 to 200 nM.
Consider `CC[C@H](C)[C@@H]1NC(=O)[C@@H](CCCNC(=N)NCc2ccc3occc3c2)NC(=O)[C@H](CC(=O)O)NC(=O)[C@H](Cc2cnc[nH]2)NC(=O)CN(C)C(=O)[C@H](Cc2ccc(-c3ccc(NC(=O)c4cccc(OCC(=O)O)c4)cc3)cc2)NC(=O)[C@H](Cc2ccc(-c3ccccc3)cc2)NC(=O)[C@H](CC2CCCCC2)NC(=O)CSC[C@@H](C(=O)NCC(N)=O)NC(=O)[C@H](CC(C)C)NC(=O)[C@H](Cc2cnc[nH]2)NC(=O)[C@H](C(C)C)NC(=O)[C@@H]2CCCN2C1=O` [Example 499] ({CH2CO}-[Cha][Bip][Bip(4'-NH)](Benzoyl(3-OCH2COOH))[Sar]HD[X7]IPVHLCG-NH2; thioether N-13), for which the IC50 was under 50 nM.

(Values after patent US20250145665A1, “MACROCYCLIC PEPTIDES USEFUL AS MODULATORS OF TNF ALPHA” (Bristol-Myers Squibb Company, priority 2023, published 2025).)
